Measured values reported in patent US20250367129A1, “Lipid Compounds and Uses Thereof” (Pfizer Inc., priority 2022, published 2025).

What was measured:
[1] = LNP size and polydispersity index by Malvern Zetasizer dynamic light scattering (CA HA modFlu mRNA LNPs); assay type: physicochemical; conditions: DLS; for Size (nm): LNP of the ionizable lipid:cholesterol:DSPC:ALC-0159 about 46.3:42.7:9.4:1.6, N:P about 6:1, CA HA modFlu mRNA; for PDI: LNP with CA HA modFlu mRNA
Description: (§1) Lipid nanoparticles were prepared and tested according to the general procedures described in U.S. Pat. No. 9,737,619 (PCT Pub. No. WO2015/199952) and U.S. Pat. No. 10,166,298 (PCT Pub. No. WO 2017/075531) and PCT Pub. No. WO2020/146805. The novel ionizable lipids of the invention, cholesterol, distearoylphosphatidylcholine (DSPC) and ALC-0159 2-[(polyethylene glycol)-2000]-N,N ditetradecylacetamide were solubilized in ethanol at a molar ratio of about 46.3:42.7:9.4:1.6. Lipid nanoparticles were made by mixing the lipids containing organic phase with the mRNA containing aqueous phase using an N:P ratio of about 6:1. The mRNA was diluted in buffer. Syringe pumps were used to mix the ethanolic lipid solution with the mRNA aqueous solution. The ethanol was then removed, and the external buffer replaced with another buffer (e.g., Tris) by dialysis. Finally, the lipid nanoparticles were filtered.
(§2) Total RNA concentration and encapsulation efficiency was assessed using the RiboGreen RNA quantitation assay. RNA integrity pre and post formulation was monitored by Agilent Fragment Analyzer capillary gel electrophoresis. Malvern Zetasizer dynamic light scattering (DLS) was used to determine LNP size and polydispersity index (PDI). In vitro expression of the novel ionizable lipid nanoparticles was assessed in HEK293F and Hela cells similar to described in Example 72. Nuclear count and identification of cells stained positive for gene of interest was done on an Opera Phenix high content imager (PerkinElmer, USA).

[2] = tested on: HEK293F cells; test: In vitro expression of novel ionizable lipid nanoparticles, high content imaging (CA HA modFlu mRNA); assay type: cell-based; conditions: LNP with CA HA modFlu mRNA
Description: (§3) Plated Hek293T or Hela cells were dosed with lipid nanoparticles in a total volume of 40 μl cell culture media and incubated overnight at 37° C. and 5% CO2. After fixation with 4% paraformaldehyde in PBS cells were washed in PBS containing 0.3% Triton-X100 and 3% BSA (w/v), followed by nuclear staining with Hoechst and antibody staining for the encoded gene of interest. Nuclear count and identification of cells stained positive for gene of interest was done on an Opera Phenix high content imager (PerkinElmer, USA).
as §1, §2

[3] = tested on: Hela cells; test: as above; assay type: cell-based; conditions: LNP with CA HA modFlu mRNA
Description: as §3, §1, §2

[4] = Encapsulation efficiency, RiboGreen RNA quantitation assay (CA HA modFlu mRNA LNPs); assay type: physicochemical; conditions: LNP with CA HA modFlu mRNA
Description: as §1, §2

Row | Structure (SMILES) | Size (nm) [1] | PDI [1] | EC50 Hek293F (ng/well) [2] | EC50 Hela (ng/well) [3] | EE % [4]
1 | CCCCCCCCC(CCC1CCC1)C(=O)OCC(COC(=O)C(CCCCCCCC)CCC1CCC1)N1CCC2(CCN(CCCCO)CC2)CC1 (stereo not drawn) [Example 36, 2-(9-(4-hydroxybutyl)-3,9-diazaspiro[5.5]undecan-3-yl)propane-1,3-diyl bis(2-(2-cyclobutylethyl)decanoate)] | 136 nm | 0.059 | 1.9 ng/well | 2.4 ng/well | 99%
2 | CCCCCCCC(CCCCCCC)C(=O)OCC(COC(=O)C(CCCCCCC)CCCCCCC)N1CCC2(CCN(CCCO)CC2)CC1 [Example 10, 2-(9-(3-hydroxypropyl)-3,9-diazaspiro[5.5]undecan-3-yl)propane-1,3-diyl bis(2-heptylnonanoate)] | 109 nm | 0.054 | 1.3 ng/well | 1.5 ng/well | 99%
3 | CCCCCCCCCCCCCCCC(=O)OCC(COC(=O)CCC(CCCC)C(CCCC)CCCC)N1CCC2(CCN(CCCCO)CC2)CC1 (stereo not drawn) [Example 46, 3-((4,5-dibutylnonanoyl)oxy)-2-(9-(4-hydroxybutyl)-3,9-diazaspiro[5.5]undecan-3-yl)propyl palmitate] | 92 nm | 0.090 | 24.6 ng/well | 1.7 ng/well | 99%
4 | CCCCCCCCC(CCCCCCCC)C(=O)O[C@@H]1CC2(CCN(CCCCO)CC2)C[C@H]1OC(=O)C(CCCCCCCC)CCCCCCCC (racemic) [Example 59, rac-(2R,3R)-8-(4-hydroxybutyl)-8-azaspiro[4.5]decane-2,3-diyl bis(2-octyldecanoate)] | 80 nm | 0.091 | 2.3 ng/well | 34.6 ng/well | 97%
5 | CCCCCCCC(CCCCCCC)C(=O)OCCCCCC(=O)O[C@@H]1CC2(CCN(CCCCO)CC2)C[C@H]1OC(=O)CCCCCOC(=O)C(CCCCCCC)CCCCCCC (racemic) [Example 64, rac-(((2R,3R)-8-(4-hydroxybutyl)-8-azaspiro[4.5]decane-2,3-diyl)bis(oxy))bis(6-oxohexane-6,1-diyl) bis(2-heptylnonanoate)] | 110 nm | 0.056 | 0.64 ng/well | 0.69 ng/well | 99%
6 | CCCCCCCCC(CC1CCCC1)C(=O)OCC(COC(=O)C(CCCCCCCC)CC1CCCC1)N1CCC2(CCN(CCCCO)CC2)CC1 (stereo not drawn) [Example 32, 2-(9-(4-hydroxybutyl)-3,9-diazaspiro[5.5]undecan-3-yl)propane-1,3-diyl bis(2-(cyclopentylmethyl)decanoate)] | 132 nm | 0.060 | 0.96 ng/well | 0.91 ng/well | 100%
7 | CCCCCCCC(CCCCCCC)C(=O)O[C@@H]1CC2(CCN(CCCO)C2)C[C@H]1OC(=O)C(CCCCCCC)CCCCCCC (racemic) [Example 53, rac-(7R,8R)-2-(3-hydroxypropyl)-2-azaspiro[4.4]nonane-7,8-diyl bis(2-heptylnonanoate)] | 89 nm | 0.090 | 2.3 ng/well | 29.5 ng/well | 94%
8 | CCCCCCCC(CCCCCCC)C(=O)OCC(COC(=O)C(CCCCCCC)CCCCCCC)N1CC2(CCN(CCCCCO)CC2)C1 [Example 18, 2-(7-(5-hydroxypentyl)-2,7-diazaspiro[3.5]nonan-2-yl)propane-1,3-diyl bis(2-heptylnonanoate)] | 149 nm | 0.060 | 0.57 ng/well | 1.4 ng/well | 99%
9 | CCCCCCCCC(CCCCCCC)C(=O)O[C@@H]1CC2(CCN(CCCCO)CC2)C[C@H]1OC(=O)C(CCCCCCC)CCCCCCCC (mixture of isomers) [Example 66, rac-(2R,3R)-8-(4-hydroxybutyl)-8-azaspiro[4.5]decane-2,3-diyl bis(2-heptyldecanoate)] | 78 nm | 0.146 | 1.1 ng/well | 2.2 ng/well | 97%
10 | CCCCCC/C=C\CCCC(=O)OCC(COC(=O)C(CCCCCC)CCCCCCCC)N1CCC2(CCN(CCCCO)CC2)CC1 (stereo not drawn) [Example 43, 3-((2-hexyldecanoyl)oxy)-2-(9-(4-hydroxybutyl)-3,9-diazaspiro[5.5]undecan-3-yl)propyl (Z)-dodec-5-enoate] | 89 nm | 0.111 | 33.3 ng/well | 14.2 ng/well | 99%
11 | CCCCCCCC(CCCCCCC)C(=O)OCCC(CCOC(=O)C(CCCCCCC)CCCCCCC)N1CCC2(CCN(CCCCO)CC2)CC1 [Example 47, 3-(9-(4-hydroxybutyl)-3,9-diazaspiro[5.5]undecan-3-yl)pentane-1,5-diyl bis(2-heptylnonanoate)] | 147 nm | 0.080 | 5.9 ng/well | 4.6 ng/well | 99%
12 | CCCCCCCC(CCCCCCC)OC(=O)CCCCCC(=O)O[C@@H]1CC2(CCN(CCCCO)CC2)C[C@H]1OC(=O)CCCCCC(=O)OC(CCCCCCC)CCCCCCC (racemic) [Example 63, rac-O′^1,O^1-((2R,3R)-8-(4-hydroxybutyl)-8-azaspiro[4.5]decane-2,3-diyl) 7,7′-di(pentadecan-8-yl) di(heptanedioate)] | 107 nm | 0.060 | 0.39 ng/well | 0.58 ng/well | 99%
13 | CCCCCCCC(CCCCCCC)C(=O)O[C@@H]1CC2(CCN(CCCNc3c(NC)c(=O)c3=O)CC2)C[C@H]1OC(=O)C(CCCCCCC)CCCCCCC (racemic) [Example 55, rac-(2R,3R)-8-(3-((2-(methylamino)-3,4-dioxocyclobut-1-en-1-yl)amino)propyl)-8-azaspiro[4.5]decane-2,3-diyl bis(2-heptylnonanoate)] | 65 nm | 0.124 | 21.4 ng/well | 45.0 ng/well | 100%
14 | CCCCCCCCC(CCCCCC)C(=O)OCC(COC(=O)C(CCCCCC)CCCCCCCC)N1CCC2(CCN(CCCCCO)CC2)CC1 (stereo not drawn) [Example 5, 2-(9-(5-hydroxypentyl)-3,9-diazaspiro[5.5]undecan-3-yl)propane-1,3-diyl bis(2-hexyldecanoate)] | 136 nm | 0.040 | 1.32 ng/well | 4.3 ng/well | 100%
15 | CCCCCCCC(CCCCCCC)C(=O)OCC(COC(=O)C(CCCCCCC)CCCCCCC)N1CCC2(CCN(CCCCO)C2)CC1 [Example 22, 2-(2-(4-hydroxybutyl)-2,8-diazaspiro[4.5]decan-8-yl)propane-1,3-diyl bis(2-heptylnonanoate)] | 107 nm | 0.065 | 0.14 ng/well | 0.39 ng/well | 99%
16 | CCCCCCCC(CCCCCCC)OC(=O)CCC(=O)O[C@@H]1CC2(CCN(CCCCO)CC2)C[C@H]1OC(=O)CCC(=O)OC(CCCCCCC)CCCCCCC (racemic) [Example 62, rac-O,O′-((2R,3R)-8-(4-hydroxybutyl)-8-azaspiro[4.5]decane-2,3-diyl) di(pentadecan-8-yl) disuccinate] | 161 nm | 0.090 | 0.36 ng/well | 1.0 ng/well | 99%
17 | CCCCCCCCCCCCCCCC(=O)OCC(COC(=O)C(CCCCCC)CCCCCCCC)N1CCC2(CCN(CCCCO)CC2)CC1 (stereo not drawn) [Example 7, 3-((2-hexyldecanoyl)oxy)-2-(9-(4-hydroxybutyl)-3,9-diazaspiro[5.5]undecan-3-yl)propyl palmitate] | 84 nm | 0.130 | 20.4 ng/well | 2.0 ng/well | 99%
18 | CCCCCCC(CCCC)(CCCC)CC(=O)OCC(COC(=O)CC(CCCC)(CCCC)CCCCCC)N1CCC2(CCN(CCCCO)CC2)CC1 [Example 39, 2-(9-(4-hydroxybutyl)-3,9-diazaspiro[5.5]undecan-3-yl)propane-1,3-diyl bis(3,3-dibutylnonanoate)] | 134 nm | 0.080 | 4.1 ng/well | 3.4 ng/well | 100%
